# Measured values taken from patent publication US9180116B2, “Difluorolactam compounds as EP4 receptor-selective agonists for use in the treatment of EP4-mediated diseases and conditions” (Cayman Chemical Company, Inc., priority 2012, dated 2015).
# Read-outs that look alike come from different tables or passages of the source.
# Experiments:
# [1] = target: T1, rat EP4 receptor (Rattus norvegicus (Rat), UniProt P43114); test: cAMP level assay for EP4 agonist (STEP plate format); format: cell-based; conditions: cAMP readout, EP4; read-out: STEP cell functional assay EC50 cAMP/EP4
# Description: (§1) Functional Cellular Assays (STEP Plate Format)
# Procedure of cAMP Assay for EP2/EP4 Agonist
# (§2) 3. […] In addition each concentration had triplicates.
# 6. Aspirate the supernatant.
# [2] = target: Human Prostanoid EP4 Receptor (Homo sapiens (Human), UniProt P35408); test: Radioligand binding assay, agonist site of human prostanoid EP4 receptor in transfected HEK-293 cells; conditions: human EP4 receptor binding
# Experimental: Radioligand Binding Assay for the Evaluation of the Affinity of Compounds for the Agonist Site of the Human Prostanoid EP4 Receptor in Transfected HEK-293 Cells
# Following incubation, the samples are filtered rapidly under vacuum through glass fiber filters (GF/B, Packard) presoaked with 0.3% PEI and rinsed several times with ice-cold 50 mM Tris-HCl using a 96-sample cell harvester (Unifilter, Packard). The filters are dried then counted for radioactivity in a scintillation counter (Topcount, Packard) using a scintillation cocktail (Microscint 0, Packard).
# [3] = target: rat EP2 receptor (Rattus norvegicus (Rat), UniProt Q62928); test: SEAP activity assay for EP2 agonist (STEP plate format); format: cell-based; conditions: read-out: STEP cell functional assay EC50 SEAP/EP2
# Description: as §1
# (§3) Procedure of SEAP Activity Assay for EP2/EP4 Agonist
# as §2
# (§4) 4. […] Cover the plate with the lid.
# [4] = target: T1, rat EP4 receptor; test: SEAP activity assay for EP4 agonist (STEP plate format); format: cell-based
# Description: as §1, §3, §2, §4
# T1 sequence (P43114 whole entry): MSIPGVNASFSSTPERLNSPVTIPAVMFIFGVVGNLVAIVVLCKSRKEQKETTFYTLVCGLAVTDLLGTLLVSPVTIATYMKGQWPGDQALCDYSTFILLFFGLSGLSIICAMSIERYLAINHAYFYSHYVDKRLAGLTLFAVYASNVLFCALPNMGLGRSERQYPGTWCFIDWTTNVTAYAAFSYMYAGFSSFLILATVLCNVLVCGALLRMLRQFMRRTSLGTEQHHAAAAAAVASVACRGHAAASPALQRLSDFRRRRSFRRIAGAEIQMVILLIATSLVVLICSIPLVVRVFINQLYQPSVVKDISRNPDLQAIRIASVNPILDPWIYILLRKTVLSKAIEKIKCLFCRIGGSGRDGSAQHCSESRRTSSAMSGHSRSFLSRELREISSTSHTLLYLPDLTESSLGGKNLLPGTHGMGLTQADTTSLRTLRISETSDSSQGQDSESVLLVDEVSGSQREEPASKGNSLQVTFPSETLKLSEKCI
# rat EP2 receptor, sequence (Q62928 whole entry): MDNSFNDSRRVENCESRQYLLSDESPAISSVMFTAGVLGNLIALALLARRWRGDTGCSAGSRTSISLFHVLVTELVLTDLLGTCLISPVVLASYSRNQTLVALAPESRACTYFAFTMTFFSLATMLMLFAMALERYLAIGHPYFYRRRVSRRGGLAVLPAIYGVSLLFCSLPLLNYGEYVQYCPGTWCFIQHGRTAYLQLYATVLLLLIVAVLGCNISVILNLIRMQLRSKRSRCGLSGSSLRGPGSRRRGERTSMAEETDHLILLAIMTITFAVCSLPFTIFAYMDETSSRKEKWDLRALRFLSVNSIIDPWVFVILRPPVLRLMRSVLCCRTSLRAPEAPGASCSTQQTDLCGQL
# Human Prostanoid EP4 Receptor, sequence (P35408 whole entry): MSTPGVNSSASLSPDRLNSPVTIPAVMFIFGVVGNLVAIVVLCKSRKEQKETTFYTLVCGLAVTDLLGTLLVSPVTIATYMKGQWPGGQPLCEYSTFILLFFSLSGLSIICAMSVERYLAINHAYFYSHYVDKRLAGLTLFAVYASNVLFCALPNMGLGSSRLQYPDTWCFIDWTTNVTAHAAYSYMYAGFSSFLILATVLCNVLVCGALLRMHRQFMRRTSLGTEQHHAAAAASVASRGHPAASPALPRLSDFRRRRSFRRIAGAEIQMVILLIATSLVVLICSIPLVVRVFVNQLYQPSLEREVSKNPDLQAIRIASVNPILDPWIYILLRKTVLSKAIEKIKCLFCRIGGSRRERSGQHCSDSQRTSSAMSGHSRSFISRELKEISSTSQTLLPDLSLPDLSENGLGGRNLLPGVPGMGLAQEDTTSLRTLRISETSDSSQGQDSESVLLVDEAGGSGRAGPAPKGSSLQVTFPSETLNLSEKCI
Structure (SMILES),EC50 [1],"EC50 ([3]; SEAP readout, EP2)",further results
"C[C@@H](CCCc1ccccc1)[C@H](O)/C=C/[C@H]1CC(F)(F)C(=O)N1CCCc1ccc(C(=O)O)s1 [Example 28C, 5-(3-((R)-3,3-difluoro-5-((3S,4S,E)-3-hydroxy-4-methyl-7-phenylhept-1-en-1-yl)-2-oxopyrrolidin-1-yl)propyl)thiophene-2-carboxylic acid]",0.01 ± 0.021 nM,148 ± 5 nM,IC50 ([2]; read-out: hEP4 receptor binding IC50): 0.74 nM; Ki ([2]; read-out: hEP4 receptor binding Ki): 0.28 nM
"C[C@@H](CCCc1ccccc1)[C@@H](O)/C=C/[C@H]1CC(F)(F)C(=O)N1CCCc1ccc(C(=O)O)s1 [Example 28D, 5-(3-((R)-3,3-difluoro-5-((3R,4S,E)-3-hydroxy-4-methyl-7-phenylhept-1-en-1-yl)-2-oxopyrrolidin-1-yl)propyl)thiophene-2-carboxylic acid]",5.68 nM,–,–
"COC(=O)c1ccc(CCCN2C(=O)C(F)(F)C[C@@H]2/C=C/[C@H](O)[C@H](C)CCCc2ccccc2)s1 [Example 28F, methyl 5-(3-((R)-3,3-difluoro-5-((3R,4R,E)-3-hydroxy-4-methyl-7-phenylhept-1-en-1-yl)-2-oxopyrrolidin-1-yl)propyl)thiphene-2-carboxylate]",> 1000 nM,–,–
"C[C@H](CCCc1ccccc1)[C@H](O)/C=C/[C@H]1CC(F)(F)C(=O)N1CCCc1ccc(C(=O)O)s1 [Example 28G, 5-(3-((R)-3,3-difluoro-5-((3S,4R,E)-3-hydroxy-4-methyl-7-phenylhept-1-en-1-yl)-2-oxopyrrolidin-1-yl)propyl)thiphene-2-carboxylic acid]",0.0162 nM,65 nM,–
"C[C@H](CCCc1ccccc1)[C@@H](O)/C=C/[C@H]1CC(F)(F)C(=O)N1CCCc1ccc(C(=O)O)s1 [Example 28H, 5-(3-((R)-3,3-difluoro-5-((3R,4R,E)-3-hydroxy-4-methyl-7-phenylhept-1-en-1-yl)-2-oxopyrrolidin-1-yl)propyl)thiphene-2-carboxylic acid]",3.15 nM,–,–
"C[C@@H](c1ccccc1)[C@H](O)/C=C/[C@H]1CC(F)(F)C(=O)N1CCCc1ccc(C(=O)O)s1 [Example 35C, 5-(3-((R)-3,3-difluoro-5-((3R,4S,E)-3-hydroxy-4-phenylpent-1-en-1-yl)-2-oxopyrrolidin-1-yl)propyl)thiophene-2-carboxylic acid]",62 nM,–,–
"COC(=O)c1ccc(CCCN2C(=O)C(F)(F)C[C@@H]2/C=C/[C@@H](O)[C@@H](C)Cc2ccccc2)s1 [Example 36A, methyl 5-(3-((R)-3,3-difluoro-5-((3S,4S,E)-3-hydroxy-4-methyl-5-phenylpent-1-en-1-yl)-2-oxopyrrolidin-1-yl)propyl)thiophene-2-carboxylate]",5.02 nM,–,–
"COC(=O)c1ccc(CCCN2C(=O)C(F)(F)C[C@@H]2/C=C/[C@H](O)[C@@H](C)Cc2ccccc2)s1 [Example 36B, methyl 5-(3-((R)-3,3-difluoro-5-((3R,4S,E)-3-hydroxy-4-methyl-5-phenylpent-1-en-1-yl)-2-oxopyrrolidin-1-yl)propyl)thiophene-2-carboxylate]",> 1000 nM,–,–
"C[C@@H](Cc1ccccc1)[C@H](O)/C=C/[C@H]1CC(F)(F)C(=O)N1CCCc1ccc(C(=O)O)s1 [Example 36C, 5-(3-((R)-3,3-difluoro-5-((3S,4S,E)-3-hydroxy-4-methyl-5-phenylpent-1-en-1-yl)-2-oxopyrrolidin-1-yl)propyl)thiophene-2-carboxylic acid]",0.038 nM,1000 nM,–
"CCCCC[C@H](O)/C=C/[C@H]1[C@H](O)CC(=O)[C@@H]1CCCCCCC(=O)O [PGE1, reference compound]",–,–,"EC50 ([3]; SEAP luminescence, 6-8 hours of stimulation): 16.5 nM"

# Continued, in another order:
EC50 [1],"EC50 ([3]; SEAP readout, EP2)",Structure (SMILES),further results
8.09 nM,–,"COC(=O)c1ccc(CCCN2C(=O)C(F)(F)C[C@@H]2/C=C/[C@@H](O)[C@@H](C)CCc2ccccc2)s1 [Example 37A, methyl 5-(3-((R)-3,3-difluoro-5-((3S,4S,E)-3-hydroxy-4-methyl-6-phenylhex-1-en-1-yl)-2-oxopyrrolidin-1-yl)propyl)thiophene-2-carboxylate]",–
> 1000 nM,–,"COC(=O)c1ccc(CCCN2C(=O)C(F)(F)C[C@@H]2/C=C/[C@@H](O)[C@@H](C)CCCCc2ccccc2)s1 [Example 38A, methyl 5-(3-((R)-3,3-difluoro-5-((3S,4S,E)-3-hydroxy-4-methyl-8-phenyloct-1-en-1-yl)-2-oxopyrrolidin-1-yl)propyl)thiophene-2-carboxylate]",–
> 1000 nM,–,"COC(=O)c1ccc(CCCN2C(=O)C(F)(F)C[C@@H]2/C=C/[C@H](O)[C@@H](C)CCCCc2ccccc2)s1 [Example 38B, methyl 5-(3-((R)-3,3-difluoro-5-((3R,4S,E)-3-hydroxy-4-methyl-8-phenyloct-1-en-1-yl)-2-oxopyrrolidin-1-yl)propyl)thiophene-2-carboxylate]",–
–,157 nM,"C[C@@H](CCCCc1ccccc1)[C@H](O)/C=C/[C@H]1CC(F)(F)C(=O)N1CCCc1ccc(C(=O)O)s1 [Example 38C, 5-(3-((R)-3,3-difluoro-5-((3S,4S,E)-3-hydroxy-4-methyl-8-phenyloct-1-en-1-yl)-2-oxopyrrolidin-1-yl)propyl)thiophene-2-carboxylic acid]",–
0.37 nM,> 10000 nM,"C[C@@H](CCCCc1ccccc1)[C@@H](O)/C=C/[C@H]1CC(F)(F)C(=O)N1CCCc1ccc(C(=O)O)s1 [Example 38D, 5-(3-((R)-3,3-difluoro-5-((3R,4S,E)-3-hydroxy-4-methyl-8-phenyloct-1-en-1-yl)-2-oxopyrrolidin-1-yl)propyl)thiophene-2-carboxylic acid]",–
> 1000 nM,–,"COC(=O)c1ccc(CCCN2C(=O)C(F)(F)C[C@@H]2/C=C/[C@@H](O)[C@@H](C)CCCCCc2ccccc2)s1 [Example 39A, methyl 5-(3-((R)-3,3-difluoro-5-((3S,4S,E)-3-hydroxy-4-methyl-9-phenylnon-1-en-1-yl)-2-oxopyrrolidin-1-yl)propyl)thiophene-2-carboxylate]",–
> 1000 nM,–,"COC(=O)c1ccc(CCCN2C(=O)C(F)(F)C[C@@H]2/C=C/[C@H](O)[C@@H](C)CCCCCc2ccccc2)s1 [Example 39B, methyl 5-(3-((R)-3,3-difluoro-5-((3R,4S,E)-3-hydroxy-4-methyl-9-phenylnon-1-en-1-yl)-2-oxopyrrolidin-1-yl)propyl)thiophene-2-carboxylate]",–
–,1020 nM,"C[C@@H](CCCCCc1ccccc1)[C@H](O)/C=C/[C@H]1CC(F)(F)C(=O)N1CCCc1ccc(C(=O)O)s1 [Example 39C, 5-(3-((R)-3,3-difluoro-5-((3S,4S,E)-3-hydroxy-4-methyl-9-phenylnon-1-en-1-yl)-2-oxopyrrolidin-1-yl)propyl)thiophene-2-carboxylic acid]",–
0.059 nM,79000 nM,"C[C@@H](CCCCCc1ccccc1)[C@@H](O)/C=C/[C@H]1CC(F)(F)C(=O)N1CCCc1ccc(C(=O)O)s1 [Example 39D, 5-(3-((R)-3,3-difluoro-5-((3R,4S,E)-3-hydroxy-4-methyl-9-phenylnon-1-en-1-yl)-2-oxopyrrolidin-1-yl)propyl)thiophene-2-carboxylic acid]",–
